Here are results for two molecules from US10231956B2, “3-(1H-pyrrolo[3,2-C]pyridin-2-YL)-1 H-pyrazolo[4,3-B]pyridines and therapeutic uses thereof” (Samumed, LLC, priority 2015, dated 2019).

Structures are written as SMILES.

Assay type in all cases: cell-based
In assay [1] the test system is Wnt activity (Sp5-Luc reporter, SW480 colon carcinoma cells). Nature of the assay: Sp5-Luc reporter gene screening assay for Wnt activity in SW480 cells. To be noted: Homo sapiens, luminescence, overnight incubation. An excerpt:
The screening assay for Wnt activity is described as follows. Reporter cell lines can be generated by stably transducing cancer cell lines (e.g., colon cancer) or primary cells (e.g., IEC-6 intestinal cells) with a lentiviral construct that includes a Wnt-responsive promoter driving expression of the firefly luciferase gene.
SW480 colon carcinoma cells were transduced with a lentiviral vector expressing luciferase with a human Sp5 promoter consisting of a sequence of eight TCF/LEF binding sites. SW480 cells stably expressing the Sp5-Luc reporter gene and a hygromycin resistance gene were selected by treatment with 150 μg/mL of hygromycin for 7 days. These stably transduced SW480 cells were expanded in cell culture and used for all further screening activities. Each compound was dissolved in DMSO as a 10 mM stock and used to prepare compound source plates. Serial dilution (1:3, 10-point dose-response curves starting from 10 μM) and compound transfer was performed using the ECHO 550 (Labcyte, Sunnyvale, Calif.) into 384-well white solid bottom assay plates (Greiner Bio-One) with appropriate DMSO backfill for a final DMSO concentration of 0.1%. For Sp5-Luc reporter gene assays, the cells were plated at 4,000 cells/well in 384-well plates with medium containing 1% fetal bovine serum and incubated overnight at 37° C. and 5% CO2. Following incubation, 20 μl of BrightGlo luminescence reagent (Promega) was added to each well of the 384-well assay plates. The plates were placed on an orbital shaker for 2 min and then luminescence was quantified using the Envision (Perkin Elmer) plate reader. Readings were normalized to DMSO only treated cells, and normalized activities were utilized for EC50 calculations using the dose-response log (inhibitor) vs. response-variable slope (four parameters) nonlinear regression feature available in GraphPad Prism 5.0 (or Dotmatics). For EC50 of >10 μM, the percent inhibition at 10 μM is provided.

The test system of a further assay is SW480 colon cancer cells. Nature of the assay: Cell viability assay (CellTiter-Blue) in SW480 colon cancer cells. To be noted: Homo sapiens, 96 h, four days, CellTiter-Blue. On the procedure:
Representative compounds were screened using the following assay procedure to assess the effect on cell viability as described below.
Each compound was dissolved in DMSO as a 10 mM stock and used to prepare compound source plates. Serial dilution (1:3, 8-point dose-response curves from 10 μM to 0.0045 μM) and compound transfer was performed using the ECHO 550 (Labcyte, Sunnyvale, Calif.) into 96-well clear bottom, black-walled plates (Corning-Costar).
Approximately 2×10^3 SW480 colon cancer cells were seeded into each well and allowed to incubate in the presence or absence of compound for four days at 37° C./5% CO2. Eight replicates of DMSO-treated cells served as controls and cells treated with compound were performed in duplicate.
After incubation, 20 μL of CellTiter-Blue (Promega) was added to each well allowed to incubate for approximately 3 hours. This reagent was a buffered solution which contains resazurin, metabolically active cells were able to reduce rezarurin (blue) into resorufin (pink) which was highly fluorescent. This measured fluorescence was used as a readout for cell viability.
After incubation, the plates were read at Ex 560 nm Em 590 nm (Cytation 3, BioTek). Dose-response curves were generated and EC50 concentration values were calculated using non-linear regression curve fit in the GraphPad Prism (San Diego, Calif.) or Dotmatics' Studies Software (Bishops Stortford, UK). For EC50 of >10 μM, the percent inhibition at 10 μM is provided.
Background: Alamar Blue is a resazurin reagent that responds to reducing activity.

Assay [2] relates to primary human fibroblasts derived from IPF patients (LL29 cells). The assay is described as follows: Inhibition of fibrotic process: αSMA staining in TGF-β1 treated LL29 fibroblasts. To be noted: Fibroblast, 96 h, TGF-β1 20 ng/mL, 4 days, % cells positive for αSMA. An excerpt: Representative compounds were screened using primary human fibroblasts (derived from IPF patients) treated with TGF-β1 to determine their ability to inhibit the fibrotic process.
Human Fibroblast Cell Culture: Primary human fibroblasts derived from IPF patients (LL29 cells) [^1Xiaoqiu Liu, et. al., “Fibrotic Lung Fibroblasts Show Blunted Inhibition by cAMP Due to Deficient cAMP Response Element-Binding Protein Phosphorylation”, Journal of Pharmacology and Experimental Therapeutics (2005), 315(2), 678-687; ^2Watts, K. L., et. al., “RhoA signaling modulates cyclin D1 expression in human lung fibroblasts; implications for idiopathic pulmonary fibrosis”, Respiratory Research (2006), 7(1), 88] were obtained from American Type Culture Collection (ATCC) and expanded in F12 medium supplemented with 15% Fetal Bovine Serum and Penicillin/Streptomycin.
Compound Screening: Each compound was dissolved in DMSO as a 10 mM stock and used to prepare compound source plates. Serial dilution (1:2, 11-point dose-response curves from […]) and compound transfer was performed using the ECHO 550 (Labcyte, Sunnyvale, Calif.) into 384-well clear bottom assay plates (Greiner Bio-One) with appropriate DMSO backfill for a final DMSO concentration of 0.1%. LL29 cells are plated at 1,500 cells/well in 80 μL/well F12 medium supplemented with 1% Fetal Bovine Serum. One hour after addition of the cells, TGF-β1 (Peprotech; 20 ng/mL) was added to the plates to induce fibrosis (ref. 1 and 2 above). Wells treated with TGF-β1 and containing DMSO were used as controls. Cells were incubated at 37° C. and 5% CO2 for 4 days. Following incubation for 4 days, SYTOX green nucleic acid stain (Life Technologies [Thermo Fisher Scientific]) was added to the wells at a final concentration of 1 μM and incubated at room temperature for 30 min. Cells were then fixed using 4% formaldehyde (Electron Microscopy Sciences), washed 3 times with PBS followed by blocking and permeabilization using 3% Bovine Serum Albumin (BSA; Sigma) and 0.3% Triton X-100 (Sigma) in PBS. Cells were then stained with antibody specific to α-smooth muscle actin (αSMA; Abcam) (ref. 1 and 2 above) in 3% Bovine Serum Albumin (BSA; Sigma) and 0.3% Triton X-100 (Sigma) in PBS, and incubated overnight at 4° C. Cells were then washed 3 times with PBS, followed by incubation with Alexa Flor-647 conjugated secondary antibody (Life Technologies [Thermo Fisher Scientific]) and DAPI at room temperature for 1 hour. Cells were then washed 3 times with PBS and plates were sealed for imaging. αSMA staining was imaged by excitation at 630 nm and emission at 665 nm and quantified using the Compartmental Analysis program on the CellInsight CX5 (Thermo Scientific). Dead or apoptotic cells were excluded from analysis based on positive SYTOX green staining. % of total cells positive for αSMA were counted in each well and normalized to the average of 11 wells treated with TGF-β1 on the same plate using Dotmatics' Studies Software. The normalized averages (fold change over untreated) of 3 replicate wells for each compound concentration were used to create dose-responses curves and EC50 values were calculated using non-linear regression curve fit in the Dotmatics' Studies Software. For EC50 of >10 μM, the percent inhibition at 10 μM is provided.

A further assay relates to IL-6. Nature of the assay: IL-6 inhibition in LPS-stimulated THP-1 cells (HTRF). To be noted: Homo sapiens, LPS 500 ng/mL, 22 hours, IL6 HTRF. On the procedure:
Human Monocyte Cell Culture: Human monocyte cell line (THP-1 cells; Catalog # TIB-202, ATCC, Manassas, Va.) were cultured in Roswell Park Memorial Institute (RPMI) 1640 Medium (Catalog #21870-100, Buffalo, N.Y.) with 1% L-glutamine, 1% HEPES, 1% Sodium Pyruvate, 2% Sodium Bicarbonate supplemented with 100 units/mL penicillin, 50 μg/mL streptomycin, 2-mercaptoethanol (0.05 mM) [basal medium] and 10% fetal bovine serum (Catalog #16140089, Life Technologies, Carlsbad, Calif.) at 37° C. and 5% CO2.
Compound Screening: THP-1 cells were cultured in basal media with 1% FBS for 24 hours before the start of the assay. Each compound was dissolved in DMSO as a 10 mM stock and used to prepare compound source plates. Serial dilution (1:3, 10-point dose-response curves starting from 1 μM) and compound transfer was performed using the ECHO 550 (Labcyte, Sunnyvale, Calif.) into 384-well white low volume assay plates (Greiner Bio-One) with appropriate DMSO backfill for a final DMSO concentration of 0.1%. THP-1 cells were plated at 5000 cells/well in the 384-well plates and incubated at 37° C. for 2 h. 500 ng/mL of LPS was added after 2 hours and cells were incubated for another 22 hours at 37° C. Plates were spun in a centrifuge for 1 minute at 10,000 rpm and a mixture of anti-IL6 XL665, and anti-IL6 Cryptate diluted in reconstitution buffer (Cisbio Inc.) was added to each well. Following incubation for 3 hrs at room temperature, Homogeneous Time-Resolved Fluorescence (HTRF) was measured using the Envision (Perkin Elmer) at 665 nm and […]. The ratio of fluorescence at 665 nm to 620 nm was used as a readout for IL6 quantification. All samples were processed in duplicate. Readings were normalized to DMSO treated cells and normalized activities were utilized for EC50 calculations using the dose-response log (inhibitor) vs. response-variable slope (four parameters) nonlinear regression feature available in GraphPad Prism 5.0 (or Dotmatics). For EC50 of >10 μM, the percent inhibition at 10 μM is provided.
On the technique in general: Time-resolved FRET reads energy transfer from a long-lived donor to a nearby acceptor.

In general, EC50 refers to the midpoint of the concentration-response curve. A lower EC50 goes with greater potency. For the molecule `Oc1cncc(-c2ccc3[nH]nc(-c4cc5c(-c6cccs6)nccc5[nH]4)c3n2)c1` [Compound 709, 5-(3-(4-(Thiophen-2-yl)-1H-pyrrolo[3,2-c]pyridin-2-yl)-1H-pyrazolo[4,3-b]pyridin-5-yl)pyridin-3-ol], the EC50 stood at 150 nM in assay [1], 457 nM with SW480 colon cancer cells, 34 nM in assay [2] and 1790 nM in the assay with IL-6.

For the molecule `Fc1cccc(-c2nccc3[nH]c(-c4n[nH]c5ccc(C6CCNCC6)nc45)cc23)c1` [Compound 505, 3-(4-(3-Fluorophenyl)-1H-pyrrolo[3,2-c]pyridin-2-yl)-5-(piperidin-4-yl)-1H-pyrazolo[4,3-b]pyridine], the EC50 in assay [1] was determined as 8320 nM; in the assay on SW480 colon cancer cells it was 4120 nM; in assay [2], 2710 nM; in the assay with IL-6 it was 1520 nM.
